From patent US20050070510A1, “Substituted tetracycline compounds as synergistic antifungal agents” (Paratek Pharmaceuticals, Inc., priority 2001, published 2005)

These molecules were tested on COS-1 cells (assay: In vitro mammalian cytotoxicity assay (Resazurin)).

Compound	In Vitro Cytotoxicity
CN(C)[C@@H]1C(O)=C(C(N)=O)C(=O)[C@@]2(C#N)C(O)=C3C(=O)c4c(ccc(NC(=O)OCC(C)(C)C)c4O)[C@H](N)[C@@]3(N)[C@H](O)[C@@]12N [BI]	** (toxicities less than 25 μg/mL are represented by **)
CN(C)[C@@H]1C(O)=C(C(N)=O)C(=O)[C@@]2(C#N)C(O)=C3C(=O)c4c(ccc(NC(=O)Nc5cccc6ccccc56)c4O)[C@H](N)[C@@]3(N)[C@H](OC(=O)Nc3ccccc3)[C@@]12N [BJ]	** (toxicities less than 25 μg/mL are represented by **)
CN(C)[C@@H]1C(O)=C(C(N)=O)C(=O)[C@@]2(C#N)C(O)=C3C(=O)c4c(ccc(NC(=O)OCC5c6ccccc6-c6ccccc65)c4O)[C@H](N)[C@@]3(N)[C@H](O)[C@@]12N [BK]	** (toxicities less than 25 μg/mL are represented by **)
CCC(=O)O[C@H]1[C@@]2(N)C(=C(O)[C@]3(C#N)C(=O)C(C(N)=O)=C(O)[C@@H](N(C)C)[C@]13N)C(=O)c1c(ccc(NC(=O)Nc3cccc4ccccc34)c1O)[C@@H]2N [BL]	* (toxicities greater than >25 μg/ml are represented by *)
CN(C)[C@@H]1C(O)=C(C(N)=O)C(=O)[C@@]2(C#N)C(O)=C3C(=O)c4c(O)cccc4[C@H](N)[C@@]3(N)[C@H](OC(=O)Nc3ccc(O)cc3[N+](=O)O)[C@@]12N [BN]	* (toxicities greater than >25 μg/ml are represented by *)
C=CC(O)O[C@H]1[C@@]2(N)C(=C(O)[C@]3(C#N)C(=O)C(C(N)=O)=C(O)[C@@H](N(C)C)[C@]13N)C(=O)c1c(O)cccc1[C@@H]2N (stereo partly shown) [BO]	** (toxicities less than 25 μg/mL are represented by **)
CN(C)[C@@H]1C(O)=C(C(N)=O)C(=O)[C@@]2(C#N)C(O)=C3C(=O)c4c(ccc(N(Cc5ccccc5)Cc5ccccc5)c4O)[C@H](N)[C@@]3(N)[C@H](O)[C@@]12N [BP]	** (toxicities less than 25 μg/mL are represented by **)
CN(C)[C@@H]1C(O)=C(C(N)=O)C(=O)[C@@]2(C#N)C(O)=C3C(=O)c4c(O)cccc4[C@H](N)[C@@]3(N)[C@H](OC(=O)CCN3CCCC3)[C@@]12N [BQ]	** (toxicities less than 25 μg/mL are represented by **)
CN(C)[C@@H]1C(O)=C(C(N)=O)C(=O)[C@@]2(C#N)C(O)=C3C(=O)c4c(ccc(-c5ccc(F)cc5)c4O)[C@H](N)[C@@]3(N)[C@H](O)[C@@]12N [BR]	** (toxicities less than 25 μg/mL are represented by **)
CN(C)[C@@H]1C(O)=C(C(N)=O)C(=O)[C@@]2(C#N)C(O)=C3C(=O)c4c(O)cccc4[C@H](N)[C@@]3(N)[C@H]([S+](N)[O-])[C@@]12N (stereo partly shown) [BS]	** (toxicities less than 25 μg/mL are represented by **)
CN(C)[C@@H]1C(O)=C(C(N)=O)C(=O)[C@@]2(C#N)C(O)=C3C(=O)c4c(ccc(-c5cc6ccccc6[nH]5)c4O)[C@H](N)[C@@]3(N)[C@H]([S+](N)[O-])[C@@]12N (stereo partly shown) [BT]	** (toxicities less than 25 μg/mL are represented by **)
CN(C)[C@@H]1C(O)=C(C(N)=O)C(=O)[C@@]2(C#N)C(O)=C3C(=O)c4c(O)cccc4/C(=C\c4ccc(F)cc4)[C@@]3(N)[C@H]([S+](N)[O-])[C@@]12N (stereo partly shown) [BU]	** (toxicities less than 25 μg/mL are represented by **)
CN(C)[C@@H]1C(O)=C(C(N)=O)C(=O)[C@@]2(C#N)C(O)=C3C(=O)c4c(O)cccc4[C@H](N)[C@@]3(N)[C@H](OC(=O)CN)[C@@]12N [BV]	** (toxicities less than 25 μg/mL are represented by **)
CN(C)[C@@H]1C(O)=C(C(N)=O)C(=O)[C@@]2(C#N)C(O)=C3C(=O)c4c(ccc(NC(=O)Nc5ccc(Cl)cc5C(F)(F)F)c4O)[C@H](N)[C@@]3(N)[C@H]([S+](N)[O-])[C@@]12N (stereo partly shown) [BW]	** (toxicities less than 25 μg/mL are represented by **)
CN(C)[C@@H]1C(O)=C(C(N)=O)C(=O)[C@@]2(C#N)C(O)=C3C(=O)c4c(O)cccc4/C(=C\c4ccc(Cl)cc4)[C@@]3(N)[C@H]([S+](N)[O-])[C@@]12N (stereo partly shown) [BY]	** (toxicities less than 25 μg/mL are represented by **)
CN(C)CC(=O)O[C@H]1[C@@]2(N)C(=C(O)[C@]3(C#N)C(=O)C(C(N)=O)=C(O)[C@@H](N(C)C)[C@]13N)C(=O)c1c(O)cccc1[C@@H]2N [BZ]	** (toxicities less than 25 μg/mL are represented by **)
CN(C)[C@@H]1C(O)=C(C(N)=O)C(=O)[C@@]2(C#N)C(O)=C3C(=O)c4c(ccc(NC5CCCC5)c4O)[C@H](N)[C@@]3(N)[C@H]([S+](N)[O-])[C@@]12N (stereo partly shown) [CA]	** (toxicities less than 25 μg/mL are represented by **)
CN(C)c1cc(NC(=O)Nc2ccc(Cl)cc2C(F)(F)F)c(O)c2c1C[C@@]1(N)C[C@@]3(N)[C@H](N(C)C)C(O)=C(C(N)=O)C(=O)[C@@]3(C#N)C(O)=C1C2=O [CB]	** (toxicities less than 25 μg/mL are represented by **)
CN(C)c1cc(/C=C/c2ccc(F)cc2)c(O)c2c1C[C@@]1(N)C[C@@]3(N)[C@H](N(C)C)C(O)=C(C(N)=O)C(=O)[C@@]3(C#N)C(O)=C1C2=O [CD]	** (toxicities less than 25 μg/mL are represented by **)
CN(C)[C@@H]1C(O)=C(C(N)=O)C(=O)[C@@]2(C#N)C(O)=C3C(=O)c4c(ccc(/C=C/c5ccc(F)cc5)c4O)[C@H](N)[C@@]3(N)[C@H](O)[C@@]12N [CE]	** (toxicities less than 25 μg/mL are represented by **)

Compound	In Vitro Cytotoxicity
CN(C)c1cc(NC(=O)Nc2cccc3ccccc23)c(O)c2c1C[C@@]1(N)C[C@@]3(N)[C@H](N(C)C)C(O)=C(C(N)=O)C(=O)[C@@]3(C#N)C(O)=C1C2=O [CF]	** (toxicities less than 25 μg/mL are represented by **)
CCCC(Nc1ccc2c(c1O)C(=O)C1=C(O)[C@]3(C#N)C(=O)C(C(N)=O)=C(O)[C@@H](N(C)C)[C@]3(N)[C@@H](O)[C@]1(N)[C@H]2N)C(=O)OCC (stereo partly shown) [CG]	** (toxicities less than 25 μg/mL are represented by **)
CN(C)[C@@H]1C(O)=C(C(N)=O)C(=O)[C@@]2(C#N)C(O)=C3C(=O)c4c(ccc(-c5ccc6c(c5)OCO6)c4O)[C@H](N)[C@@]3(N)[C@H](O)[C@@]12N [CH]	** (toxicities less than 25 μg/mL are represented by **)
C=CCNc1ccc2c(c1O)C(=O)C1=C(O)[C@]3(C#N)C(=O)C(C(N)=O)=C(O)[C@@H](N(C)C)[C@]3(N)[C@@H](O)[C@]1(N)[C@H]2N [CI]	** (toxicities less than 25 μg/mL are represented by **)
CN(C)[C@@H]1C(O)=C(C(N)=O)C(=O)[C@@]2(C#N)C(O)=C3C(=O)c4c(O)cccc4[C@H](N)[C@@]3(N)[C@H](OC(=O)C34CC5CC(CC(C5)C3)C4)[C@@]12N [CJ]	** (toxicities less than 25 μg/mL are represented by **)
CN(C)[C@@H]1C(O)=C(C(N)=O)C(=O)[C@@]2(C#N)C(O)=C3C(=O)c4c(O)cccc4/C(=C\c4cccc(C(N)=O)c4)[C@@]3(N)[C@H](O)[C@@]12N [CK]	* (toxicities greater than >25 μg/ml are represented by *)
CN(C)[C@@H]1C(O)=C(C(N)=O)C(=O)[C@@]2(C#N)C(O)=C3C(=O)c4c(O)ccc(I)c4[C@H](N)[C@@]3(N)[C@H](O)[C@@]12N [CL]	** (toxicities less than 25 μg/mL are represented by **)
CCC(=O)O[C@H]1[C@@]2(N)C(=C(O)[C@]3(C#N)C(=O)C(C(N)=O)=C(O)[C@@H](N(C)C)[C@]13N)C(=O)c1c(O)ccc(I)c1[C@@H]2N [CM]	** (toxicities less than 25 μg/mL are represented by **)
CN(C)[C@@H]1C(O)=C(C(N)=O)C(=O)[C@@]2(C#N)C(O)=C3C(=O)c4c(O)ccc(-c5ccccn5)c4[C@H](N)[C@@]3(N)[C@H](O)[C@@]12N [CN]	* (toxicities greater than >25 μg/ml are represented by *)
CN(C)[C@@H]1C(O)=C(C(N)=O)C(=O)[C@@]2(C#N)C(O)=C3C(=O)c4c(ccc(Br)c4O)[C@H](N)[C@@]3(N)[C@H](O)[C@@]12N [CO]	* (toxicities greater than >25 μg/ml are represented by *)
CN(C)[C@@H]1C(O)=C(C(N)=O)C(=O)[C@@]2(C#N)C(O)=C3C(=O)c4c(O)ccc(-c5ccc(F)cc5)c4[C@H](N)[C@@]3(N)[C@H](O)[C@@]12N [CQ]	** (toxicities less than 25 μg/mL are represented by **)
CC(=O)c1ccc(O)c2c1[C@H](N)[C@]1(N)C(=C(O)[C@]3(C#N)C(=O)C(C(N)=O)=C(O)[C@@H](N(C)C)[C@]3(N)[C@H]1O)C2=O [CR]	** (toxicities less than 25 μg/mL are represented by **)
CN(C)[C@@H]1C(O)=C(C(N)=O)C(=O)[C@@]2(C#N)C(O)=C3C(=O)c4c(O)c(I)cc(I)c4[C@H](N)[C@@]3(N)[C@H](O)[C@@]12N [CT]	** (toxicities less than 25 μg/mL are represented by **)
CN(C)[C@@H]1C(O)=C(C(N)=O)C(=O)[C@@]2(C#N)C(O)=C3C(=O)c4c(O)ccc(I)c4C[C@@]3(N)C[C@@]12N [CU]	** (toxicities less than 25 μg/mL are represented by **)
CN(C)[C@@H]1C(O)=C(C(N)=O)C(=O)[C@@]2(C#N)C(O)=C3C(=O)c4c(O)ccc(I)c4[C@H](N)[C@@]3(N)[C@H](OC(=O)C3CCCCC3)[C@@]12N [CV]	** (toxicities less than 25 μg/mL are represented by **)
CN(C)[C@@H]1C(O)=C(C(N)=O)C(=O)[C@@]2(C#N)C(O)=C3C(=O)c4c(O)ccc(-c5ccc(I)cc5)c4C[C@@]3(N)C[C@@]12N [CW]	** (toxicities less than 25 μg/mL are represented by **)
CN(C)[C@@H]1C(O)=C(C(N)=O)C(=O)[C@@]2(C#N)C(O)=C3C(=O)c4c(O)ccc(-c5ccccc5)c4C[C@@]3(N)C[C@@]12N [CX]	* (toxicities greater than >25 μg/ml are represented by *)
Cc1ccc(/C=C2\c3cccc(O)c3C(=O)C3=C(O)[C@]4(C#N)C(=O)C(C(N)=O)=C(O)[C@@H](N(C)C)[C@]4(O)[C@@H](O)[C@@]32N)cc1 [CY]	** (toxicities less than 25 μg/mL are represented by **)
CN(C)[C@@H]1C(O)=C(C(N)=O)C(=O)[C@@]2(C#N)C(O)=C3C(=O)c4c(O)cccc4C(N)[C@@]3(N)[C@H](O)[C@@]12N (stereo partly shown) [CZ]	** (toxicities less than 25 μg/mL are represented by **)
CC#Cc1ccc(O)c2c1CC1CC3[C@H](N(C)C)C(O)=C(C(N)=O)C(=O)[C@@]3(O)C(O)=C1C2=O (stereo partly shown) [Compound HC, 7-(Propynyl)-Sancycline]	** (toxicities less than 25 μg/mL are represented by **)
